Measured values from ChEMBL document CHEMBL1201862, “PubChem BioAssay data set” (2004).
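1) Cells in 96-well plates. 2) Compound, 48 h, 5 concentrations. 3) Linear interpolation between surrounding doses. 4) Unreached endpoint = highest concentration. Here, GI50 denotes the concentration required for 50% inhibition of growth.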 Active and inactive are the calls of the source. Rule as the data show it: active = GI50 up to about 1.1 µM and inactive = higher.

How the values were obtained:
Experiment in all cases: growth of human tumour cells (NCI), 48 h
[1] = system: OVCAR-3
[2] = system: SN12C
[3] = system: UO-31
[4] = system: NCI-H522
[5] = system: CAKI-1
[6] = system: HCC 2998
[7] = system: HT-29
[8] = system: CCRF-CEM
[9] = system: HCT-15
[10] = system: NCI-H226
[11] = system: SK-OV-3
[12] = system: OVCAR-4
[13] = system: ACHN
[14] = system: 786-0
[15] = system: SK-MEL-2
[16] = system: RPMI-8226
[17] = system: SNB-19
[18] = system: SW-620
[19] = system: OVCAR-8
[20] = system: HL-60

| Compound | GI50 [1] | GI50 [2] | GI50 [3] | GI50 [4] | GI50 [5] | GI50 [6] | GI50 [7] | GI50 [8] | GI50 [9] | GI50 [10] | GI50 [11] | GI50 [12] | GI50 [13] | GI50 [14] | GI50 [15] | GI50 [16] | GI50 [17] | GI50 [18] | GI50 [19] | GI50 [20] |
| --- | --- | --- | --- | --- | --- | --- | --- | --- | --- | --- | --- | --- | --- | --- | --- | --- | --- | --- | --- | --- |
| Nc1nn2c(=O)c3ccccc3nc2s1 | > 100 µM (inactive) | 65.6 µM (inactive) | 28.2 µM (inactive) | 17.5 µM (inactive) | > 100 µM (inactive) | > 100 µM (inactive) | 41.2 µM (inactive) | 18.2 µM (inactive) | 44.9 µM | 23.9 µM (inactive) | > 100 µM (inactive) | > 100 µM (inactive) | > 100 µM (inactive) | 42.5 µM (inactive) | > 100 µM (inactive) | 32.4 µM (inactive) | > 100 µM (inactive) | 19.2 µM (inactive) | 30 µM (inactive) |  |
| CCOC(=O)/C=C/CCC(C)(C)COC(C)=O | > 10 µM (inactive) | > 10 µM (inactive) | > 10 µM (inactive) | > 10 µM (inactive) | > 10 µM (inactive) | > 10 µM (inactive) | > 10 µM (inactive) | > 10 µM (inactive) | > 10 µM | > 10 µM (inactive) | > 10 µM (inactive) | > 10 µM (inactive) | > 10 µM (inactive) | > 10 µM (inactive) | > 10 µM (inactive) | > 10 µM (inactive) | > 10 µM (inactive) | > 10 µM (inactive) | > 10 µM (inactive) | > 10 µM (inactive) |
| Cn1c(=O)c2ccccc2[n+]2c(-c3cccc([N+](=O)[O-])c3)csc12 | 39.4 µM (inactive) | > 100 µM (inactive) | > 100 µM (inactive) | 38 µM (inactive) | 73.5 µM (inactive) | > 100 µM (inactive) | 41.3 µM (inactive) | 32.6 µM (inactive) |  | > 100 µM (inactive) | 73.6 µM (inactive) | > 100 µM (inactive) | > 100 µM (inactive) | 54.3 µM (inactive) | 36.4 µM (inactive) | 28.1 µM (inactive) | > 100 µM (inactive) | > 100 µM (inactive) | 18 µM (inactive) | 23 µM (inactive) |
| C=CCOC(=O)N1c2ccc(O[Si](C)(C)C(C)(C)C)cc2[C@@]23O[C@@]24[C@@H]1C#C/C=C\C#C[C@]3(O)C(OC)(OC)C[C@@H]4C | 5.55 µM (inactive) | > 84.7 µM (inactive) | 14.1 µM (inactive) | 44.6 µM (inactive) | 2.71 µM (inactive) | > 22.8 µM (inactive) | 12.9 µM (inactive) | > 23.7 µM (inactive) | > 100 µM | 13.6 µM (inactive) | 7.36 µM (inactive) | 48.6 µM (inactive) | 10.6 µM (inactive) | 43.5 µM (inactive) | > 100 µM (inactive) | 18.6 µM (inactive) | > 74.6 µM (inactive) | 14 µM (inactive) | > 53.8 µM (inactive) |  |
| COc1cc(C2[C@H]3C(=O)N(c4ccc(Cc5ccc(N6C(=O)[C@@H]7ON(c8ccccc8)C(c8cc(OC)c(OC)c(OC)c8)[C@@H]7C6=O)cc5)cc4)C(=O)[C@H]3ON2c2ccccc2)cc(OC)c1OC (stereo partly drawn) | > 100 µM (inactive) | > 100 µM (inactive) | > 100 µM (inactive) | > 100 µM (inactive) | > 100 µM (inactive) | > 100 µM (inactive) | > 100 µM (inactive) | > 100 µM (inactive) | > 100 µM | > 100 µM (inactive) | > 100 µM (inactive) | > 100 µM (inactive) | > 100 µM (inactive) | > 100 µM (inactive) | > 100 µM (inactive) | > 100 µM (inactive) | > 100 µM (inactive) | > 100 µM (inactive) | > 100 µM (inactive) | > 100 µM (inactive) |
| COc1cc2c(c(OC)c1OC)C(=O)CC2N (stereo not drawn) | > 100 µM (inactive) |  | > 100 µM (inactive) | > 100 µM (inactive) | > 100 µM (inactive) | > 100 µM (inactive) | > 100 µM (inactive) | > 100 µM (inactive) | > 100 µM | > 100 µM (inactive) | > 100 µM (inactive) | > 100 µM (inactive) | > 100 µM (inactive) | > 100 µM (inactive) | > 100 µM (inactive) | > 100 µM (inactive) | > 100 µM (inactive) | > 100 µM (inactive) | > 100 µM (inactive) | > 100 µM (inactive) |
| COC(=O)C(=O)C(C(=O)C(=O)Nc1ccccc1C(N)=O)c1nc2ccc([N+](=O)[O-])cc2nc1O (stereo not drawn) |  | > 100 µM (inactive) | > 100 µM (inactive) | > 100 µM (inactive) | > 100 µM (inactive) | > 100 µM (inactive) | > 100 µM (inactive) | > 100 µM (inactive) | > 100 µM | > 100 µM (inactive) | > 100 µM (inactive) | > 100 µM (inactive) | > 100 µM (inactive) | > 100 µM (inactive) | > 100 µM (inactive) | > 100 µM (inactive) | > 100 µM (inactive) | > 100 µM (inactive) | > 100 µM (inactive) | > 100 µM (inactive) |
| COc1cccc([C@@]2(O)c3c(ccc(O)c3OC)[C@H]2OC)c1OC | 23.9 µM (inactive) | 62.1 µM (inactive) | 36.4 µM (inactive) | 16.3 µM (inactive) | 22.6 µM (inactive) | 25.7 µM (inactive) | 28.1 µM (inactive) | 45.4 µM (inactive) |  | 43.5 µM (inactive) | 31.8 µM (inactive) | 39.7 µM (inactive) | 31.3 µM (inactive) | 14.4 µM (inactive) | 37.8 µM (inactive) | 39.1 µM (inactive) | 74 µM (inactive) | 28.6 µM (inactive) | 38.5 µM (inactive) | 19.3 µM (inactive) |
| COC1OC(C(=O)O)C2OC(C)(C)OC12 (stereo not drawn) | > 100 µM (inactive) | > 100 µM (inactive) | > 100 µM (inactive) | > 100 µM (inactive) | > 100 µM (inactive) | > 100 µM (inactive) | > 100 µM (inactive) | > 100 µM (inactive) | > 100 µM | > 100 µM (inactive) | > 100 µM (inactive) | > 100 µM (inactive) | > 100 µM (inactive) | > 100 µM (inactive) | > 100 µM (inactive) | > 100 µM (inactive) | > 100 µM (inactive) | > 100 µM (inactive) | > 100 µM (inactive) |  |
| CCCCCCCCCCCCCCCCCc1nnc(N)o1 | > 100 µM (inactive) | > 100 µM (inactive) | > 100 µM (inactive) | > 100 µM (inactive) | > 100 µM (inactive) | > 100 µM (inactive) | > 100 µM (inactive) |  | > 100 µM | > 100 µM (inactive) | > 100 µM (inactive) | > 100 µM (inactive) | > 100 µM (inactive) | > 100 µM (inactive) | > 100 µM (inactive) | > 100 µM (inactive) | > 100 µM (inactive) | > 100 µM (inactive) | > 100 µM (inactive) | > 100 µM (inactive) |
| O=C(N/N=C(COc1ccc(Cl)cc1)\N=C\c1cccnc1)c1ccncc1 | > 100 µM (inactive) | > 100 µM (inactive) |  | 23.5 µM (inactive) | > 100 µM (inactive) | 88.1 µM (inactive) | > 100 µM (inactive) | > 100 µM (inactive) | 85.9 µM | 68.2 µM (inactive) | > 100 µM (inactive) | > 100 µM (inactive) | > 100 µM (inactive) | > 100 µM (inactive) | > 100 µM (inactive) | 32.5 µM (inactive) | > 100 µM (inactive) | > 100 µM (inactive) | 89.1 µM (inactive) | > 100 µM (inactive) |
| COC(=O)CCC(=O)CC1CC(=O)C2CCCN12 (stereo not drawn) | > 100 µM (inactive) | > 100 µM (inactive) | > 100 µM (inactive) | > 100 µM (inactive) | > 100 µM (inactive) | > 100 µM (inactive) | > 100 µM (inactive) | > 100 µM (inactive) |  | > 100 µM (inactive) | > 100 µM (inactive) | > 100 µM (inactive) | > 100 µM (inactive) | > 100 µM (inactive) | > 100 µM (inactive) | > 100 µM (inactive) | > 100 µM (inactive) | > 100 µM (inactive) | > 100 µM (inactive) | > 100 µM (inactive) |
| CCCN1C(=O)CNC(=O)c2[nH]cnc21 | > 100 µM (inactive) | > 100 µM (inactive) | > 100 µM (inactive) | > 100 µM (inactive) | > 100 µM (inactive) | > 100 µM (inactive) | > 100 µM (inactive) | > 100 µM (inactive) | > 100 µM | > 100 µM (inactive) | > 100 µM (inactive) |  | > 100 µM (inactive) | > 100 µM (inactive) | > 100 µM (inactive) | > 100 µM (inactive) | > 100 µM (inactive) | > 100 µM (inactive) | > 100 µM (inactive) | > 100 µM (inactive) |
| Oc1cc(O)c2c(c1)O[C@H](c1cc(O)c(O)c(O)c1)[C@@H](O)C2 [GALLOCATECHIN] | 21.8 µM (inactive) | 18.3 µM (inactive) | 18.2 µM (inactive) | 17.5 µM (inactive) | 43.7 µM (inactive) | > 10 µM (inactive) |  | 19.5 µM (inactive) | 40 µM | 28.8 µM (inactive) | 28.1 µM (inactive) | 22.4 µM (inactive) | 21.1 µM (inactive) | 18 µM (inactive) | 24.6 µM (inactive) | 20.7 µM (inactive) | > 100 µM (inactive) | 17.3 µM (inactive) | 16.2 µM (inactive) | 22.2 µM (inactive) |
